Laboratory results from patent US6331555A, “Treatment of platelet derived growth factor related disorders such as cancers” (priority 1999, dated 2001).

Experiments:
T98G cells = assay: PDGF-stimulated DNA synthesis, T98G cells (3H-thymidine); type: cell-based, human; details: 50 ng/ml PDGF-BB
Protocol: T98G cells in log phase growth were transferred to 96-well dishes at 20,000 cells in 200 μL of serum-containing growth medium. After an overnight attachment period, the monolayers were washed twice with 200 μL MCDB 105 medium and the cells were cultured in 200 μL serum-free MCDB 105 medium for 24 hr. […] The plates were incubated at 37° C. at ambient CO2 for approximately 18 hr. ^3 H-thymidine (Amersham, 5 Ci/mmol) was added to each well to yield a final concentration of 5 μCi/mL and the plates were returned to 37° C. incubator. After 4 hr the medium was removed, the plates were put onto ice, and washed twice with 200 μL ice-cold PBS per well. Radioactivity incorporated into DNA was separated from unincorporated ^3 H-thymidine by precipitation with 100 μL ice-cold TCA for 10 min on ice. […] Six mL of cocktail (Ready Safe, Beckman) was added and radioactivity quantified in a Beckman liquid scintillation counter model LS6000SC. […]
The effect on basal ^3 H-thymidine incorporation was determined in the absence of PDGF. […] Radioactivity incorporated into DNA was separated from unincorporated ^3 H-thymidine by precipitation with […] ice-cold TCA for 10 minutes. […] Six ml of cocktail (Ready Safe, Beckman) was added and radioactivity quantified in a Beckman liquid scintillation counter model LS6000 SC.

A549 lung tumor = assay: SC xenograft in mice; type: in vivo, human
Protocol: (§1) Cell lines were grown in appropriate medium (see Appendix 1). Cells were harvested at or near confluency with 0.05% Trypsin-EDTA and pelleted at 450×g for 10 min. Pellets were resuspended in sterile PBS or media (without FBS) to a particular concentration and the cells were implanted into the hindflank of mice. Tumor growth was measured over 3 to 6 weeks using venier calipers. Tumor volumes were calculated as a product of length×width×height unless otherwise indicated. P values were calculated using the Students' t-test.

Calu-6 lung tumor = assay: SC xenograft in mice; type: in vivo, human; details: nu/nu, 20 mg/kg/day, day 28
Protocol: as §1

MCF7 mammary tumor = assay: SC xenograft in mice; type: in vivo, human
Protocol: as §1

PA-1 ovarian tumor = assay: SC xenograft in mice; type: in vivo, human; details: nu/nu, 20 mg/kg/day, day 36
Protocol: as §1

SF763T glioma = assay: SC xenograft in mice; type: in vivo, human
Protocol: as §1

U118T glioma = assay: SC xenograft in mice; type: in vivo, human; details: nu/nu, 15 mg/kg/day, day 47
Protocol: as §1

D1B leukemia = assay: SC syngeneic leukemia model in mice; type: in vivo, murine; details: DBA/2, 20 mg/kg/day, day 22
Protocol: as §1

SF763 = assay: Xenograft in athymic mice; type: in vivo; details: xenografted athymic mice
Protocol: as §1
(§2) PDGF-R expression was measured qualitatively using a western blot.

SF767 = assay: Xenograft in athymic mice; type: in vivo; details: xenografted athymic mice
Protocol: as §1, §2

WEHI-164.13 cells = assay: CTL generation in tumor-bearing mice (MLTC); type: in vivo, mouse; design: CTL activity: key to the marks not given beside the values; details: 20 mg/kg/day
Protocol: BALB/c mice received SC implants of syngeneic WEHI-164.13 fibrosarcoma cells on day 0. […] On day 17, the animals were sacrificed and their spleens were removed. The spleen cells were assayed in vitro for responses to alloantigens and mitogens.
The spleen cells were also assayed for the generation of WEHI-164.13-specific cytotoxic T-lymphocytes (CTL) in the mixed lymphocyte tumor cell culture (MLTC). Spleen cells from untreated tumor-bearing animals mounted a vigorous CTL response (44% specific lysis at E:T=50:1). This response was inhibited almost completely in animals receiving the vehicle alone (13% specific lysis). […] (Walia, et al., Proc. Soc. Exp. Biol. Med., 192:177-200, 1989.)

[1] = test system: autoimmune animal diseases; details: in vivo; cited from earlier work

Cc1oncc1C(=O)Nc1ccc(C(F)(F)F)cc1 [Compound A10, 5-methylisoxazole-4 carboxylic acid-(4-trifluromethyl)-anilide]
PDGF-stimulated DNA synthesis (T98G cells): decreased PDGF-stimulated DNA synthesis in both types of cells, however a greater effect was seen in human T98G glioblastoma cells | growth of xenograft (A549 lung tumor; 12 to 20 mg/kg/day): failed to significantly inhibit the growth | % Inhibition (A549 lung tumor; SCID, 15 mg/kg/day, day 48, treatment from day 29): 19% | % Inhibition (Calu-6 lung tumor): 64% | growth of xenograft (MCF7 mammary tumor; 12 to 20 mg/kg/day): failed to significantly inhibit the growth | % Inhibition (MCF7 mammary tumor; SCID, 15 mg/kg/day, day 27, treatment from day 8): 8% | % Inhibition (PA-1 ovarian tumor): 53% | % Inhibition (SF763T glioma; 20 mg/kg): 89% | % Inhibition (SF763T glioma; nu/nu, 20 mg/kg/day, day 22): 85% | In Vivo inhibition (SF763T glioma; xenografted athymic mice): 89% | % Inhibition (U118T glioma): 57% | % Inhibition (D1B leukemia): 95% | In Vivo inhibition (SF763): 35% | In Vivo inhibition (SF767): 18% | CTL response, specific lysis (WEHI-164.13 cells; vehicle 13%, untreated 44%): 78% | CTL activity (WEHI-164.13 cells; Tumor stimulus): ++ | autoimmune animal diseases [1]: very effective in preventing and curing several autoimmune animal diseases
